Data from patent US10670605B2, “Cysteine reactive probes and uses thereof” (The Scripps Research Institute, priority 2015, dated 2020).
Values belong to the molecule of their own block, whether it stands above or below them.

What was measured:
Assay in all cases: Competitive isoTOP-ABPP in situ (fragment-treated cells)
Format in all cases: cell-based
[1] = target: T1, cysteines in MDA-MB-231 and Ramos cells (Homo sapiens, UniProt Q86YH6)
T1 sequence (Q86YH6 1-399): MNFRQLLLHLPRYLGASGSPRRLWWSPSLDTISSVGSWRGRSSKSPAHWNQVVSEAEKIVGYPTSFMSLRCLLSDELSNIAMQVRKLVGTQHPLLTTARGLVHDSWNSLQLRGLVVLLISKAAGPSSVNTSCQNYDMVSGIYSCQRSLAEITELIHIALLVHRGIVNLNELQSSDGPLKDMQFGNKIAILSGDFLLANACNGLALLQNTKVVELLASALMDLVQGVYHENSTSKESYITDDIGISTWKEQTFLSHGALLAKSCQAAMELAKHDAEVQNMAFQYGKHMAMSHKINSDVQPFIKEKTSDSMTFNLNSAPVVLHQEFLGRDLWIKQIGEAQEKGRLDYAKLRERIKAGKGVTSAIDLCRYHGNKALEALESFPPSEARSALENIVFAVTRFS

[2] = target: T2, cysteines in MDA-MB-231 and Ramos cells (Homo sapiens, UniProt Q8WV74)
T2 sequence (Q8WV74 1-236): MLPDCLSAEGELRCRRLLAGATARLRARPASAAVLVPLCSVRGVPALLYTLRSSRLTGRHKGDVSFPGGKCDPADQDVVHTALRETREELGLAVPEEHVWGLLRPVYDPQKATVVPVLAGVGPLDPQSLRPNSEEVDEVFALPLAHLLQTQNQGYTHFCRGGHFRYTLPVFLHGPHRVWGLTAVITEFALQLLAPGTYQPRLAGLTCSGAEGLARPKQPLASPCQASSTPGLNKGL

[3] = target: cysteines in MDA-MB-231 and Ramos cells (Homo sapiens, UniProt P68366)
cysteines in MDA-MB-231 and Ramos cells (Homo sapiens, UniProt P68366), sequence (P68366 whole entry): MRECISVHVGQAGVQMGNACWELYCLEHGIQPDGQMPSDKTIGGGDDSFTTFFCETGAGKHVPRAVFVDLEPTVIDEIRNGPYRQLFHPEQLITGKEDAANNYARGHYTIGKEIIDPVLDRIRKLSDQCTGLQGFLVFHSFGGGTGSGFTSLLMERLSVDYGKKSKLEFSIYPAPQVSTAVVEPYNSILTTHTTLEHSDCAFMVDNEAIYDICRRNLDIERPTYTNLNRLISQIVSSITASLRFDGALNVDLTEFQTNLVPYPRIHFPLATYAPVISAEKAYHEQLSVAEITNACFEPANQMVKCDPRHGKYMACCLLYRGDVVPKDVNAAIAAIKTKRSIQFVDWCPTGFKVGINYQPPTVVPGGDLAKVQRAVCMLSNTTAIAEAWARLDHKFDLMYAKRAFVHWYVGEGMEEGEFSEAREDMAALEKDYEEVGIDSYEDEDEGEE

[4] = target: cysteines in MDA-MB-231 and Ramos cells (Homo sapiens, UniProt Q9Y3D2)
cysteines in MDA-MB-231 and Ramos cells (Homo sapiens, UniProt Q9Y3D2), sequence (Q9Y3D2 21-182): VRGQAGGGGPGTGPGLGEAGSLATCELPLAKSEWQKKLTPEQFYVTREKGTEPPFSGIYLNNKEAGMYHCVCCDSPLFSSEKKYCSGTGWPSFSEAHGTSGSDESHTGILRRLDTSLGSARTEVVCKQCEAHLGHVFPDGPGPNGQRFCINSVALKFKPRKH

[5] = target: T3, cysteines in MDA-MB-231 and Ramos cells (Homo sapiens, UniProt P53384)
T3 sequence (P53384 1-320): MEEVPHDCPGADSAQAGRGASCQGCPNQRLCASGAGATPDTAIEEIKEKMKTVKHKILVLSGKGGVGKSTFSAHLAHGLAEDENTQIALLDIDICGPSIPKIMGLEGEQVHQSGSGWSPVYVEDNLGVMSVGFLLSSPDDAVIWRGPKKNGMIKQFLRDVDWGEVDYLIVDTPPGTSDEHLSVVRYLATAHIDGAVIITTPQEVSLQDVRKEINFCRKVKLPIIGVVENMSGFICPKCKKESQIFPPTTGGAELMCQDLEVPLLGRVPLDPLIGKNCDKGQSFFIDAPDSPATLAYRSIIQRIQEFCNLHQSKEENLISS

[6] = target: T4, cysteines in MDA-MB-231 and Ramos cells (Homo sapiens, UniProt Q15013)
T4 sequence (Q15013 1-274): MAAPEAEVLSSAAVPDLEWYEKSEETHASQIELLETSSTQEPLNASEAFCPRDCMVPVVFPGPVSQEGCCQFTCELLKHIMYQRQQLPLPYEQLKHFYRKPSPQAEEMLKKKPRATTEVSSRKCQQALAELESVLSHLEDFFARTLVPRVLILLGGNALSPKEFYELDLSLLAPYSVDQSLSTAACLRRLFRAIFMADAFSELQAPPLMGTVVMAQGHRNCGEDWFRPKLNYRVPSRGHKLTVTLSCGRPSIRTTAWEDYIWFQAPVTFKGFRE

[7] = target: T5, cysteines in MDA-MB-231 and Ramos cells (Homo sapiens, UniProt Q07065)
T5 sequence (Q07065 1-602): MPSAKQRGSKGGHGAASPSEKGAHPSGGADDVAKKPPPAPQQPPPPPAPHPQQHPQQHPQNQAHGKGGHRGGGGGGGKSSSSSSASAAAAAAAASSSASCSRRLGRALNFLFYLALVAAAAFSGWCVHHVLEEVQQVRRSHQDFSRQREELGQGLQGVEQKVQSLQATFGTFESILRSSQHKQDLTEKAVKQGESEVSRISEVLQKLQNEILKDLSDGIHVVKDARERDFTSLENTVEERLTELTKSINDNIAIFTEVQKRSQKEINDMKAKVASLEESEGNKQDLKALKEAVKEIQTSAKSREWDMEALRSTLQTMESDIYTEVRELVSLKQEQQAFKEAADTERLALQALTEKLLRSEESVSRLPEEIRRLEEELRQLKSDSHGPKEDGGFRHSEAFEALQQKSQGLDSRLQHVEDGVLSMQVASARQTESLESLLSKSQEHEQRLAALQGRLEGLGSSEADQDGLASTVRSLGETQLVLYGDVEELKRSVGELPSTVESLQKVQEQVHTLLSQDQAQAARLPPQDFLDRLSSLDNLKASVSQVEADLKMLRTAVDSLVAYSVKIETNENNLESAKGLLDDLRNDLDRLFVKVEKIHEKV

[8] = target: cysteines in MDA-MB-231 and Ramos cells (Homo sapiens, UniProt P49189); details: 200 μM, insitu
cysteines in MDA-MB-231 and Ramos cells (Homo sapiens, UniProt P49189), sequence (P49189 whole entry): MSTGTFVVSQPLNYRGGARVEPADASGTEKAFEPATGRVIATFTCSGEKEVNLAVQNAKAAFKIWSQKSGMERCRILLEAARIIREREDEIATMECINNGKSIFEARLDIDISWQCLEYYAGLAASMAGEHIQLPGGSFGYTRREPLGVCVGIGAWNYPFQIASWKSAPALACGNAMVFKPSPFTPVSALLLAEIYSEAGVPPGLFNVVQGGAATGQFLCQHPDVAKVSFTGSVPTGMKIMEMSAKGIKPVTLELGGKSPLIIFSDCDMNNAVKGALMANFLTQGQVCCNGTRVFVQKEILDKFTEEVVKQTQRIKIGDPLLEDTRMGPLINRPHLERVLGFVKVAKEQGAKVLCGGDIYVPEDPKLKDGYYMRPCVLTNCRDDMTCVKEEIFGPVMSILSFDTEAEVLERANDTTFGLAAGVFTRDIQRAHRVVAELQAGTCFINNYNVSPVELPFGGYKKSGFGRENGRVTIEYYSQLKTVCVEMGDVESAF

[9] = target: T6, cysteines in MDA-MB-231 and Ramos cells (Homo sapiens, UniProt O00244)
T6 sequence (O00244 1-68): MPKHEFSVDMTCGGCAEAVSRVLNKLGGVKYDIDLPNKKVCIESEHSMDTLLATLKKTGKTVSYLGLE

[10] = target: T7, cysteines in MDA-MB-231 and Ramos cells (Homo sapiens, UniProt O14733); details: 200 μM, insitu
T7 sequence (O14733 1-419): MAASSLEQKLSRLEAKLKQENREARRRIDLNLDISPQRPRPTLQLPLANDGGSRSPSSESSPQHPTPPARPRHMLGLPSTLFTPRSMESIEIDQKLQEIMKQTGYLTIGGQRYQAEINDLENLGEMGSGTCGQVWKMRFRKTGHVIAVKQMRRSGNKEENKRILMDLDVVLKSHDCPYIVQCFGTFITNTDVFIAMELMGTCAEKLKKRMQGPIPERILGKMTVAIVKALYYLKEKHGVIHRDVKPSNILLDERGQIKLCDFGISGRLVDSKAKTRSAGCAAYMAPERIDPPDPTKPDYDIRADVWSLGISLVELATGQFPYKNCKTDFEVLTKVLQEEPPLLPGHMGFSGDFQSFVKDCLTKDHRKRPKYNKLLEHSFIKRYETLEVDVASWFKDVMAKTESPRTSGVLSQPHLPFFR

isoTOP-ABPP reactivity Q86YH6_C71 PDSS2 ([1]; 200 μM, insitu, 231): 20.0
isoTOP-ABPP reactivity Q8WV74_C207 NUDT8 ([2]; 200 μM, insitu, 231): 20.0
isoTOP-ABPP reactivity P68366_C54 TUBA4A ([3]; 200 μM, insitu, 231): 9.7
SMILES: COc1ccc2c(c1)CCCN2C(=O)CCl [compound 2]

isoTOP-ABPP reactivity Q9Y3D2_C105 MSRB2 ([4]; 200 μM, insitu, 231): 20.0
isoTOP-ABPP reactivity Q8WV74_C207 NUDT8 ([2]; 200 μM, insitu, 231): 20.0
isoTOP-ABPP reactivity P68366_C54 TUBA4A ([3]; 200 μM, insitu, 231): 0.9
isoTOP-ABPP reactivity P53384_C235 NUBP1 ([5]; 200 μM, insitu, 231): 0.6
isoTOP-ABPP reactivity Q15013_C124 MAD2L1BP ([6]; 200 μM, insitu, 231): 5.4
SMILES: COc1cc2c(cc1OC)CN(C(=O)CCl)CC2 [compound 8]

isoTOP-ABPP ratio, cysteine O14733_C131 [10]; 231: 1.8
isoTOP-ABPP ratio, cysteine Q9Y3D2_C105 ([4]; 200 μM, insitu, 231): 20.0
isoTOP-ABPP ratio Q86YH6_C71 ([1]; 200 μM, insitu, 231): 20.0
isoTOP-ABPP ratio, cysteine Q8WV74_C207 ([2]; 200 μM, insitu, ramos): 20.0
isoTOP-ABPP ratio P68366_C54 ([3]; 200 μM, insitu, 231): 7.9
isoTOP-ABPP ratio P68366_C54 ([3]; 200 μM, insitu, ramos): 2.8
isoTOP-ABPP ratio P49189_C288 [8]; 231: 20.0
isoTOP-ABPP ratio, cysteine O00244_C12 ([9]; 200 μM, insitu, 231): 2.1
SMILES: O=C(CCl)N1CCN(S(=O)(=O)c2ccccc2F)CC1 [compound 10]

isoTOP-ABPP ratio, cysteine Q07065_C100 ([7]; 100 μM in situ 231): 1.0
isoTOP-ABPP ratio, cysteine Q9Y3D2_C105 ([4]; 100 μM in situ 231): 1.3
isoTOP-ABPP ratio Q86YH6_C71 ([1]; 100 μM in situ 231): 1.0
isoTOP-ABPP ratio P68366_C54 ([3]; 100 μM in situ 231): 0.3
isoTOP-ABPP ratio, cysteine O00244_C12 ([9]; 100 μM in situ 231): 0.7
isoTOP-ABPP ratio, cysteine Q15013_C124 ([6]; 100 μM in situ 231): 1.0
SMILES: Cn1cc(S(=O)(=O)N2CCOCC2)cc1C(=O)NC(=O)CCl [compound 11]

isoTOP-ABPP ratio, cysteine O14733_C131 [10]; 231: 1.7
isoTOP-ABPP ratio, cysteine Q07065_C100 ([7]; 200 μM, insitu, 231): 20.0
isoTOP-ABPP ratio, cysteine Q9Y3D2_C105 ([4]; 200 μM, insitu, 231): 20.0
isoTOP-ABPP ratio Q86YH6_C71 ([1]; 200 μM, insitu, 231): 20.0
isoTOP-ABPP ratio P49189_C288 [8]; 231: 1.8
isoTOP-ABPP ratio, cysteine P53384_C235 ([5]; 200 μM, insitu, 231): 0.5
SMILES: O=C(CCl)NC(=O)NC12CC3CC(CC(C3)C1)C2 [compound 12]

Second part, the molecule before the results:

SMILES: COc1ccc(C2CC(c3cccs3)=NN2C(=O)CCl)cc1 (stereo not shown) [compound 4]
isoTOP-ABPP reactivity Q9Y3D2_C105 MSRB2 ([4]; 100 μM in situ 231): 20.0
isoTOP-ABPP reactivity Q86YH6_C71 PDSS2 ([1]; 100 μM in situ 231): 20.0
isoTOP-ABPP reactivity Q8WV74_C207 NUDT8 ([2]; 100 μM in situ 231): 20.0
isoTOP-ABPP reactivity P68366_C54 TUBA4A ([3]; 100 μM in situ 231): 0.8
isoTOP-ABPP reactivity P53384_C235 NUBP1 ([5]; 100 μM in situ 231): 0.6
isoTOP-ABPP reactivity Q15013_C124 MAD2L1BP ([6]; 100 μM in situ 231): 13.0

SMILES: O=C(CCl)N1CCC(Cc2ccccc2)CC1 [compound 9]
isoTOP-ABPP reactivity Q07065_C100 CKAP4 ([7]; 200 μM, insitu, 231): 15.4
isoTOP-ABPP reactivity P49189_C288 ALDH9A1 [8]; 231: 20.0
isoTOP-ABPP reactivity O00244_C12 ATOX1 ([9]; 200 μM, insitu, 231): 4.7
isoTOP-ABPP reactivity P53384_C235 NUBP1 ([5]; 200 μM, insitu, 231): 6.8

SMILES: O=C(CCl)NCCc1c[nH]c2ccccc12 [compound 13]
isoTOP-ABPP ratio, cysteine O14733_C131 ([10]; ramos): 1.6
isoTOP-ABPP ratio, cysteine Q07065_C100 ([7]; 200 μM, insitu, 231): 1.6
isoTOP-ABPP ratio Q86YH6_C71 ([1]; 200 μM, insitu, 231): 1.2
isoTOP-ABPP ratio Q86YH6_C71 ([1]; 200 μM, insitu, ramos): 1.8
isoTOP-ABPP ratio, cysteine Q8WV74_C207 ([2]; 200 μM, insitu, 231): 13.1
isoTOP-ABPP ratio P68366_C54 ([3]; 200 μM, insitu, ramos): 1.3
isoTOP-ABPP ratio P49189_C288 ([8]; ramos): 12.0
isoTOP-ABPP ratio, cysteine O00244_C12 ([9]; 200 μM, insitu, 231): 1.5
